This is an account of results in ChEMBL document CHEMBL1157519, “Cytotoxic acylated triterpene saponins from the husks of Xanthoceras sorbifolia” (J Nat Prod, 2008).

By IC50 is commonly meant the concentration that gives 50% inhibition. Higher therefore signals weaker potency in that assay.

This experiment deals with OVCAR-3. Nature of the experiment: Growth inhibition of human OVCAR-3 cells by MTT assay. The class given is functional, cell-based. (In general: Tetrazolium assays rely on reduction of a dye to a coloured formazan, in cell work by metabolically active cells.)

Turning to `C/C=C(/C)C(=O)O[C@H]1[C@H](O)[C@]2(COC(=O)C(C)CC)[C@H](O)[C@H](O)[C@]3(C)C(=CC[C@@H]4[C@@]5(C)CC[C@H](O[C@@H]6O[C@H](C(=O)O)[C@@H](O)[C@H](O[C@@H]7O[C@@H](CO)[C@H](O)[C@H]7O)[C@H]6O[C@@H]6O[C@H](CO)[C@@H](O)[C@H](O)[C@H]6O)[C@@H](C)[C@@H]5CC[C@]43C)[C@@H]2CC1(C)C` (some centres undefined), the IC50 is 13.1 µM. This lies in the double-digit micromolar range.

On to `C/C=C(/C)C(=O)O[C@H]1[C@H](OC(=O)/C(C)=C\C)[C@]2(CO)[C@H](O)[C@H](O)[C@]3(C)C(=CC[C@@H]4[C@@]5(C)CC[C@H](O[C@@H]6O[C@H](C(=O)O)[C@@H](O)[C@H](O[C@@H]7O[C@@H](CO)[C@H](O)[C@H]7O)[C@H]6O[C@@H]6O[C@H](CO)[C@H](O)[C@H](O)[C@H]6O)[C@@H](C)[C@@H]5CC[C@]43C)[C@@H]2CC1(C)C`, for which inhibition was half-maximal at 4 µM (IC50).

On to `C/C=C(/C)C(=O)O[C@H]1[C@H](OC(=O)/C(C)=C\C)[C@]2(CO)[C@H](O)C[C@]3(C)C(=CC[C@@H]4[C@@]5(C)CC[C@H](O[C@@H]6O[C@H](C(=O)O)[C@@H](O)[C@H](O[C@@H]7O[C@@H](CO)[C@H](O)[C@H]7O)[C@H]6O[C@@H]6O[C@H](CO)[C@H](O)[C@H](O)[C@H]6O)[C@@H](C)[C@@H]5CC[C@]43C)[C@@H]2CC1(C)C`, for which the IC50 came out at 4.8 µM.

In the case of `C/C=C(/C)C(=O)O[C@H]1[C@H](OC(=O)C(C)C)[C@]2(CO)[C@H](O)[C@H](O)[C@]3(C)C(=CC[C@@H]4[C@@]5(C)CC[C@H](O[C@@H]6O[C@H](C(=O)O)[C@@H](O)[C@H](O[C@@H]7O[C@@H](CO)[C@H](O)[C@H]7O)[C@H]6O[C@@H]6O[C@H](CO)[C@H](O)[C@H](O)[C@H]6O)[C@@H](C)[C@@H]5CC[C@]43C)[C@@H]2CC1(C)C`, the IC50 was found to be 4.2 µM. The IC50 values of the last two molecules are within 1.5-fold of each other.
